Test results as given in patent US20170253607A1, “LONG-ACTING HIV PROTEASE INHIBITOR” (Shionogi & Co., Ltd., priority 2014, published 2017).

Legend:
HIV-1 PR = HIV-1 PR (Human immunodeficiency virus type 1 group M subtype B, UniProt P04585); assay: HIV-protease inhibitory activity assay (FRET peptide substrate); assay type: biochemical; settings: Test Example 1
How it was run: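 Inhibition of HIV-1 protease was measured as loss of fluorescence dequenching of a HiLyte Fluor 488/QXL 520 peptide at 2 μmol/L, pH 4.8, room temperature, 60 minute reaction. IC50 was derived by nonlinear four-parameter fitting.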

[1] = Evaluation of total body clearance (CLtot), intravenous administration; assay type: in vivo, Sprague-Dawley (SD); settings: rat (SD), intravenous administration 0.5-10 mg/kg; CLtot = dose/AUC
Procedure: Dose: Intravenous administration with designated doses was selected. (Doses were changed depending on compounds.) • 0.5-10 mg/kg (n=2-3) Preparation of dosing formulation: The dosing solution was prepared by dissolving in an adequate solvent. Administration method: The dosing solution was injected into the tail vein by a syringe with a needle Blood sampling: The blood was collected at the scheduled time and obtained the plasma. Plasma concentrations of the compound were measured by LC/MS/MS. Statistical analysis: Area under the plasma concentration-time curve (AUC) of the compound was calculated by pharmacokinetic analysis software, WinNonlin™ and CLtot was calculated by dividing the dose by AUC.

| Structure (SMILES) | IC50 (HIV-1 PR) [nM] | rat_CLt [1] [mL/min/kg] |
| --- | --- | --- |
| COc1ccc(S(=O)(=O)N(CC(C)C)CC(O)C(Cc2ccc(NCc3cc(F)ccc3C(=O)Nc3sc4c(c3C(=O)O)CC(C)(C)CC4)cc2)NC(=O)OC2COC3(C)OCCC23)cc1 (centres unmarked) [Compound I-625] | 5.07 | 0.0688 |
| CC1(C)CCc2sc(NC(=O)c3ccccc3CNc3ccc(CC(NC(=O)OC4COC5OCCC45)C(O)CN(CC4CCCC4)S(=O)(=O)c4ccc5c(c4)OCO5)cc3)c(C(=O)O)c2C1 (centres unmarked) [Compound I-858] | 4.23 | 0.142 |
| CC1(C)CCc2sc(NC(=O)c3ccccc3CNc3ccc(CC(NC(=O)OC4COC5(C)OCCC45)C(O)CN(CC4CCCC4)S(=O)(=O)c4ccc5c(c4)OCO5)cc3)c(C(=O)O)c2C1 (centres unmarked) [Compound I-600] | 5.07 | 0.104 |
| COc1ccc(S(=O)(=O)N(CC(C)C)CC(O)C(Cc2ccc(NCc3cc(-c4sc5c(c4C(=O)O)CC(C)(C)CC5)ccc3C)cc2)NC(=O)OC2COC3(C)OCCC23)cc1 (centres unmarked) [Compound I-550] | 1.75 | 5.29 |
| COc1ccc(S(=O)(=O)N(CC(C)C)CC(O)C(Cc2ccc(NCc3ccc(C(=O)NCc4ccc(F)cc4)cc3-c3sc4c(c3C(=O)O)CC(C)(C)CC4)cc2)NC(=O)OC2COC3(C)OCCC23)cc1 (centres unmarked) [Compound I-481] | 3.72 | 3.29 |
| COc1ccc(S(=O)(=O)N(CC2CCC2)CC(O)C(Cc2ccc(NCc3cc(C(F)(F)F)ccc3-c3sc4c(c3C(=O)O)CC(C)(C)CC4)cc2)NC(=O)OC2COC3OCCC23)cc1 (centres unmarked) [Compound I-869] | 6.45 | 1.15 |
| COc1ccc(S(=O)(=O)N(CC(C)C)CC(O)C(Cc2ccc(OCc3ccccc3-c3nc4n(c3C(=O)O)CCCC4)cc2)NC(=O)OC2COC3(C)OCCC23)cc1 (centres unmarked) [Compound I-125] | 1.58 | 3.89 |
| COc1ccc(S(=O)(=O)N(CC(C)C)CC(O)C(Cc2ccc(N(C)Cc3cc(N4CCN(C)CC4)ccc3-c3sc4c(c3C(=O)O)CC(C)(C)CC4)cc2)NC(=O)OC2COC3(C)OCCC23)cc1 (centres unmarked) [Compound I-701] | 1.49 | 2.71 |
| COc1ccc(S(=O)(=O)N(CC(C)C)CC(O)C(Cc2ccc(NCc3ccccc3-c3sc4c(c3C(=O)O)CC(C)(C)CC4)cc2)NC(=O)OC2COC3(C)OCCC23O)cc1 (centres unmarked) [Compound I-890] | 1.74 | 0.652 |
| COc1ccc(S(=O)(=O)N(CC(C)C)CC(O)C(Cc2ccc(NCc3ncccc3C(=O)Nc3sc4c(c3C(=O)O)CC(C)(C)CC4)cc2)NC(=O)OC2COC3OCCC23)cc1 (centres unmarked) [Compound I-882] | 2.28 | 0.26 |
| COc1ccc(S(=O)(=O)N(CC(C)C)CC(O)C(Cc2ccc(N(C)Cc3ccccc3C(=O)Nc3sc4c(c3C(=O)O)CC(C)(C)CC4)cc2)NC(=O)OC2COC3(C)OCCC23)cc1 (centres unmarked) [Compound I-407] | 3.77 | 0.31 |
| COc1ccc(S(=O)(=O)N(CC(C)C)CC(O)C(Cc2ccc(NCc3cc4c(cc3-c3sc5c(c3C(=O)O)CC(C)(C)CC5)OCCO4)cc2)NC(=O)OC2COC3(C)OCCC23)cc1 (centres unmarked) [Compound I-651] | 2 | 0.536 |
| COc1ccc(S(=O)(=O)N(CC(C)C)CC(O)C(Cc2ccc(NCC3CCCC3c3sc4c(c3C(=O)O)CC(C)(C)CC4)cc2)NC(=O)OC2COC3OCCC23)cc1 (centres unmarked) [Compound I-877] | 2.12 | 2.31 |
| COc1ccc(S(=O)(=O)N(CC(C)C)CC(O)C(Cc2ccc(NCc3ccc4nc(-c5sc6c(c5C(=O)O)CC(C)(C)CC6)sc4c3)cc2)NC(=O)OC2COC3(C)OCCC23)cc1 (centres unmarked) [Compound I-487] | 3.03 | 3.16 |
| COc1ccc(S(=O)(=O)N(CC(C)C)CC(O)C(Cc2ccc(N(C)Cc3cc4c(cc3-c3sc5c(c3C(=O)O)CC(C)(C)CC5)OCCO4)cc2)NC(=O)OC2COC3(C)OCCC23)cc1 (centres unmarked) [Compound I-704] | 2.39 | 0.724 |
| COc1ccc(S(=O)(=O)N(CC(C)C)CC(O)C(Cc2ccc(NCC3=C(c4sc5c(c4C(=O)O)CC(C)(C)CC5)CC(C)(C)C3)cc2)NC(=O)OC2COC3(C)OCCC23)cc1 (centres unmarked) [Compound I-662] | 2.51 | 1.11 |
| COc1ccc(S(=O)(=O)N(CC2CCCC2)CC(O)C(Cc2ccc(NCc3ccccc3-c3sc4c(c3C(=O)O)CC(C)(C)CC4)cc2)NC(=O)OC2COC3(C)OCCC23)cc1 (centres unmarked) [Compound I-483] | 2.75 | 2.41 |
| COc1ccc(S(=O)(=O)N(CC(C)C)CC(O)C(Cc2ccc(N3CCC(Oc4ccccc4C(=O)Nc4sc5c(c4C(=O)O)CC(C)(C)CC5)C3)cc2)NC(=O)OC2COC3(C)OCCC23)cc1 (centres unmarked) [Compound I-588] | 3.29 | 0.291 |
| COc1ccc(S(=O)(=O)N(CC(C)C)CC(O)C(Cc2ccc(NCc3cccc(C(=O)Nc4sc5c(c4C(=O)O)CC(C)(C)CC5)c3)cc2)NC(=O)OC2COC3(C)OCCC23)cc1 (centres unmarked) [Compound I-436] | 3.17 | 1.72 |
| COc1ccc(S(=O)(=O)N(CC(C)C)CC(O)C(Cc2ccc(NCc3cc4ccccc4nc3-c3sc4c(c3C(=O)O)CC(C)(C)CC4)cc2)NC(=O)OC2COC3(C)OCCC23)cc1 (centres unmarked) [Compound I-652] | 2.46 | 0.641 |
| COc1ccc(S(=O)(=O)N(CC(C)C)CC(O)C(Cc2ccc(NCc3cc4c(cc3-c3sc5c(c3C(=O)O)CC(C)(C)CC5)OCO4)cc2)NC(=O)OC2COC3(C)OCCC23)cc1 (centres unmarked) [Compound I-552] | 1.41 | 0.985 |
| COc1ccc(S(=O)(=O)N(CC(C)C)CC(O)C(Cc2ccc(N(C)Cc3cccc(-c4sc5c(c4C(=O)O)CC(C)(C)CC5)c3C)cc2)NC(=O)OC2COC3(C)OCCC23)cc1 (centres unmarked) [Compound I-510] | 10.6 | 1.08 |
| COc1ccc(S(=O)(=O)N(CC(C)C)CC(O)C(Cc2ccc(NCC3CCCC3c3sc4c(c3C(=O)O)CC(C)(C)CC4)cc2)NC(=O)OC2COC3(C)OCCC23)cc1 (centres unmarked) [Compound I-409] | 2.45 | 0.873 |
| COc1ccc(S(=O)(=O)N(CC(C)C)CC(O)C(Cc2ccc(N(C)CC3=C(c4sc5c(c4C(=O)O)CC(C)(C)CC5)CCCCC3)cc2)NC(=O)OC2COC3(C)OCCC23)cc1 (centres unmarked) [Compound I-525] | 5.75 | 0.127 |
| COc1ccc(S(=O)(=O)N(CC(C)C)CC(O)C(Cc2ccc(N(C)Cc3cc4ccccc4cc3-c3sc4c(c3C(=O)O)CC(C)(C)CC4)cc2)NC(=O)OC2COC3(C)OCCC23)cc1 (centres unmarked) [Compound I-582] | 9.36 | 0.179 |
| COc1ccc(S(=O)(=O)N(CC(C)C)CC(O)C(Cc2ccc(NCc3ccccc3-c3sc(N(C4CCCCC4)C4CCCCC4)nc3C(=O)O)cc2)NC(=O)OC2COC3(C)OCCC23)cc1 (centres unmarked) [Compound I-454] | 5.51 | 4.02 |
| COc1ccc(S(=O)(=O)N(CC(C)C)CC(O)C(Cc2ccc(N3CCC(Oc4ccccc4-c4sc5c(c4C(=O)O)CC(C)(C)CC5)CC3)cc2)NC(=O)OC2COC3(C)OCCC23)cc1 (centres unmarked) [Compound I-578] | 2.39 | 3.16 |
| COc1ccc(S(=O)(=O)N(CC2CCCC2)CC(O)C(Cc2ccc(NCc3ccccc3C(=O)Nc3sc4c(c3C(=O)O)CC(C)(C)CC4)cc2)NC(=O)OC2COC3OCCC23)cc1 (centres unmarked) [Compound I-857] | 3.41 | 0.132 |
